Source: patent US20210379068A1, “METHODS AND MATERIALS FOR TREATING NEUROPSYCHIATRIC DISORDERS” (Mayo Foundation for Medical Education and Research, priority 2018, published 2021)
“Also recorded” adds a separate entry of the source.

Experiments:
Assay type in all cases: in vivo, mouse
[1] = test system: Plin2+ periventricular glia; experiment: Periventricular Plin2+ and TAF-positive cells (lateral ventricle), HFD INK-ATTAC mice; conditions: AP20187 vs vehicle
Experimental: (§1) INK-ATTAC mice were injected intraperitoneally (i.p.) with AP20187 (10 mg/kg) or vehicle for 3 days every 2 weeks for a total of 8-10 weeks.
Paraffin sections were deparaffinized with Histoclear and hydrated in an ethanol gradient followed by water and PBS. Antigen was retrieved by incubation in 0.01M citrate buffer (pH 6.0) at 95° C. for 10 minutes. Slides were placed in blocking buffer (1:60 normal goat serum [S-1000, Vector Laboratories] in 0.1% BSA/PBS) for 60 minutes at room temperature. […] Primary antibodies used (Table 2) were diluted in blocking buffer and applied overnight at 4° C. The next day, slides were washed 3 times with PBS and incubated for 30 minutes with secondary goat, anti-rabbit antibody (1:200; Vector Laboratories #BA-1000) for TAF staining or for 60 minutes with secondary Alexa antibody (Table 1). For TAF staining, Fluorescein-Avidin in PBS (1:500; #A-2011, Vector Lab) was applied to each sample for 20 minutes. Slides were washed 3 times in PBS, which was followed by FISH for TAF detection. […]
A single, 3 μm-thick section per mouse was used for TAF staining, while for Dcx and Plin2 staining was performed on three 10 μm-thick sections 80 μm-apart. To quantify periventricular lipid accumulation 10-30 images in the periventricular region were taken using the DM5500 widefield fluorescence microscope from Leica with a 10× (for frequency of periventricular glia) or ×40 (for ALISE phenotype of ependymal cells) objective lens. Number of Plin2-positive cells (for frequency of ALISE-positive periventricular glia) or area of Plin2-positive vesicles (for ALISE phenotype of ependymal cells) was assessed using ImageJ software. For identity assessment of Plin2+ cells, 10 μm-thick sections were stained with combination of antibodies for Iba1 (secondary antibody conjugated with Alexa Fluor 488), Plin2 (secondary antibody conjugated with Alexa Fluor 594), and Vimentin (secondary antibody conjugated with Alexa Fluor 647) and quantified for frequency of Plin2+ astrocytes (Iba1−, Vim+) and microglia (Iba1+) in the periventricular region. […]

[2] = test system: senescent cells in perigonadal adipose tissue; experiment: Senescence markers in perigonadal adipose tissue, INK-ATTAC mice on HFD; conditions: AP20187 vs vehicle
Experimental: as §1
Total RNA was extracted from white adipose tissue and brain using Trizol (Life Technologies, Carlsbad, Calif.) and reverse transcribed to cDNA with a M-MLV Reverse Transcriptase kit (Life Technologies). Real-time PCR was performed in a 7500 Fast Real Time PCR System (Applied Biosystems, Foster City, Calif.) using TaqMan Fast Universal PCR Master Mix (Life Technologies) and predesigned primers and probes from Applied Biosystems (Assay ID: Mm00494449_m1 [CDKN2A]; Mm04205640_g1 [CDKN1A]; Mm00446191_m1 [IL6]). Target gene expression was expressed as 2-ΔΔCT by the comparative CT method and normalized to the expression of TATA-binding protein (TBP) (Assay ID: Mm01277042 ml [TBP]).
On the day of the sacrifice, a small piece of adipose tissue was fixed with 2% PFA and 0.5% glutaraldehyde (Sigma) for 15 minutes at room temperature before being incubated overnight in SA-β-Gal solution (150 mM NaCl (Sigma), 2 mM MgCl2 (Sigma), 40 mM Citric Acid (Sigma), 12 mM NaPO3 (Sigma), 400 μg/ml X-gal (Thermofisher), 2.1 mg/ml potassium hexacyanoferrat(II)trihydrate, and 1.65 mg/ml Potassium hexacyanoferrat(III)trihydrate (Sigma), pH 6.0) at 37° C. overnight. Fat chunks were washed with PBS three times and stored in PBS at 4° C. protected from light. Within 3 days, adipose tissue was stained with Hoechst solution (1:5000; Thermofisher), lightly squashed between two 1×3 inch glass slides, and imaged using a light microscope. 10-20 random visual fields were captured at 20× magnification at light exposure identical for all the samples. Images were quantified by manual counting of SA-β-Gal positive cells by a blinded assessor and the data were expressed as percent of total DAPI-positive cells.
Paraffin sections were deparaffinized with Histoclear and hydrated in an ethanol gradient followed by water and PBS. Antigen was retrieved by incubation in 0.01M citrate buffer (pH 6.0) at 95° C. for 10 minutes. Slides were placed in blocking buffer (1:60 normal goat serum [S-1000, Vector Laboratories] in 0.1% BSA/PBS) for 60 minutes at room temperature. […] Primary antibodies used (Table 2) were diluted in blocking buffer and applied overnight at 4° C. The next day, slides were washed 3 times with PBS and incubated for 30 minutes with secondary goat, anti-rabbit antibody (1:200; Vector Laboratories #BA-1000) for TAF staining or for 60 minutes with secondary Alexa antibody (Table 1). For TAF staining, Fluorescein-Avidin in PBS (1:500; #A-2011, Vector Lab) was applied to each sample for 20 minutes. Slides were washed 3 times in PBS, which was followed by FISH for TAF detection. Briefly, tissues were crosslinked with 4% paraformaldehyde for 20 minutes and dehydrated in graded ethanol. Sections were denatured for 10 minutes at 80° C. in hybridization buffer (70% formamide (Sigma), 25 mM MgCl2, 0.1 M Tris (pH 7.2), and 5% blocking reagent [Roche]) containing 2.5 μg ml^−1 Cy-3-labelled telomere-specific (CCCTAA) peptide nucleic acid probe (Panagene), followed by hybridization for 2 hour at room temperature in the dark. Slides were washed twice with 70% formamide in 2×SSC for 15 minutes, followed by washes in 2×SSC and PBS for 10 minutes. Sections were mounted in Vectashield, DAPI-containing mounting media and imaged.
A single, 3 μm-thick section per mouse was used for TAF staining, while for Dcx and Plin2 staining was performed on three 10 μm-thick sections 80 μm-apart. To quantify periventricular lipid accumulation 10-30 images in the periventricular region were taken using the DM5500 widefield fluorescence microscope from Leica with a 10× (for frequency of periventricular glia) or ×40 (for ALISE phenotype of ependymal cells) objective lens. Number of Plin2-positive cells (for frequency of ALISE-positive periventricular glia) or area of Plin2-positive vesicles (for ALISE phenotype of ependymal cells) was assessed using ImageJ software. […]

[3] = test system: db/db mice; experiment: Open field test, off-target effects of AP in db/db mice; conditions: AP 10 mg/kg i.p. 3 days every 2 weeks for 8 weeks
Experimental: For off target effect measurements db/db and HDF mice (fed with HFD for 2 months prior treatment) were injected intraperitoneally (i.p.) with […] at 10 mg/kg or vehicle for 3 days every 2 weeks for 8 weeks.
Locomotor activity and anxiety-like behavior of mice were assessed in sound-insulated, rectangular activity chambers (Med Associates Inc., St Albans, Vt., USA: W×L×D=27 cm×27 cm×20 cm with continually running fans, infrared lasers, and sensors). Beam breaks were assessed in 2-minute bins over 30 minutes, converted automatically to current mouse location and distance travelled (cm), and recorded on a computer with Med-PC software Version 4.0. Before the test, mice were acclimatized to the room for 1-1.5 hours before being introduced into the chambers. Mice were habituated for 5 minutes in the Open Field chamber (without recording) then placed for another 5 minutes in the home cage. Afterwards, mice were introduced back to the chambers and all mouse movements were recorded for 30 minutes. Anxiety was quantified by the distance mice travelled in the central 25% of the chamber (zone 1) as a function of the total distance mice travelled and by frequencies of entries into zone 1.

CC[C@H](C(=O)N1CCCC[C@H]1C(=O)O[C@H](CCc1ccc(OC)c(OC)c1)c1cccc(OCC(=O)NCC(CNC(=O)COc2cccc([C@@H](CCc3ccc(OC)c(OC)c3)OC(=O)[C@@H]3CCCCN3C(=O)[C@@H](CC)c3cc(OC)c(OC)c(OC)c3)c2)CN(C)C)c1)c1cc(OC)c(OC)c(OC)c1 [AP]
Plin2+ cells (cells containing lipid droplets) in the periventricular area [1]: significant reduction | cells bearing senescent markers (NeuN negative, TAF-positive cells) in the periventricular region [1]: significant reduction | Plin2+ cells (cells containing lipid droplets) in the periventricular area ([1]; listed as AP20187): reduced lipid droplets | % SA-β-Gal positive cells, perigonadal adipose tissue [2]: significantly reduced | p16Ink4a (RT-PCR), perigonadal adipose tissue [2]: significantly reduced | p21 (PCR), perigonadal adipose tissue [2]: not significantly changed | telomere-associated DNA damage foci (TAF), perigonadal adipose tissue [2]: significantly reduced | γ-H2A.X DNA damage foci, perigonadal adipose tissue [2]: not significantly changed | % SA-β-Gal positive cells, perigonadal adipose tissue ([2]; listed as AP20187): complete rescue | p21 (PCR), perigonadal adipose tissue ([2]; listed as AP20187): no change | γ-H2A.X DNA damage foci, perigonadal adipose tissue ([2]; listed as AP20187): no change | anxiety-like behavior by open field test, off-target control [3]: no difference; also recorded: No off-target effects
